ChEMBL document CHEMBL3875233, “Non-kinase targets of protein kinase inhibitors” (Nat Rev Drug Discov, 2017)

Assays:
[1] = target: T1, Receptor-type tyrosine-protein kinase FLT3 (Homo sapiens, UniProt P36888); assay: Inhibition of FLT3 (unknown origin)
T1 sequence (P36888 whole entry): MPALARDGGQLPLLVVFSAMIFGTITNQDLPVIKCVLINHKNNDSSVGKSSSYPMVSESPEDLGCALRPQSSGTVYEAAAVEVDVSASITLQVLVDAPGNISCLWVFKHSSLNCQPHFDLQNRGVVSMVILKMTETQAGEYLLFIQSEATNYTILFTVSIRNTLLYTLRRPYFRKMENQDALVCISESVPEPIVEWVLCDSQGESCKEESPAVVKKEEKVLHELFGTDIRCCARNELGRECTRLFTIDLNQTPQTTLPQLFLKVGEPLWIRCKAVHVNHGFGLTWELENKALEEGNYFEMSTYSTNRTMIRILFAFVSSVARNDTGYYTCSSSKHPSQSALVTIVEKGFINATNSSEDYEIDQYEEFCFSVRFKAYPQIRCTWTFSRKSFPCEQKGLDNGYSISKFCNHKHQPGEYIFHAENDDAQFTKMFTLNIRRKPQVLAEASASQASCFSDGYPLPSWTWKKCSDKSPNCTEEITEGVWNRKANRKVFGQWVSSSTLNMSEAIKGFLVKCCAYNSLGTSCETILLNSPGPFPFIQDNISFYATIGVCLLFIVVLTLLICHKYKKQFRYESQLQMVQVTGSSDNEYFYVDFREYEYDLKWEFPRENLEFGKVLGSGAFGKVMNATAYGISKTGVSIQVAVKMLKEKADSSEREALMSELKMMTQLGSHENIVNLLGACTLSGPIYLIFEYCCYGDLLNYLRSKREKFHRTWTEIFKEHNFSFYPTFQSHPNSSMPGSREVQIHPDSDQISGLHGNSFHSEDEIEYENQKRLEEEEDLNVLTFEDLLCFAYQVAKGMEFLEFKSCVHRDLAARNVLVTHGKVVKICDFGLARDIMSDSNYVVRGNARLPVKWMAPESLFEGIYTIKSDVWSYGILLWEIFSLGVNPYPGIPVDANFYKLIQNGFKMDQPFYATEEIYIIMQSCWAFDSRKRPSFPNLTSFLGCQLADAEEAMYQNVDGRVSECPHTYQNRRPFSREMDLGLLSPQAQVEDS

[2] = target: T2, Bromodomain-containing protein 4 (Homo sapiens, UniProt O60885)
Description: Binding affinity to recombinant human His6-TEV protease-tagged BRD4 bromodomain 1 expressed in bacteria by isothermal titration calorimetric method

[3] = target: T3, Ribosyldihydronicotinamide dehydrogenase [quinone] (Homo sapiens, UniProt P16083)
T3 sequence (P16083 whole entry): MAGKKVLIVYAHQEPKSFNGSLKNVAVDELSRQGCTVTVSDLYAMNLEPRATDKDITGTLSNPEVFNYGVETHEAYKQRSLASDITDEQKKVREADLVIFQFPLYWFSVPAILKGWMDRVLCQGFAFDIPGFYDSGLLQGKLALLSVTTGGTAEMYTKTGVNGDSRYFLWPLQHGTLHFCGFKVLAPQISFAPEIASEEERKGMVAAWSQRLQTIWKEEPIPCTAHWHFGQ
Description: Inhibition of kinobead binding to NQO2 in human K562 cells incubated for 30 mins by iTRAQ reagent-based mass spectrometric method

[4] = target: MAP kinase-activated protein kinase 2 (Homo sapiens, UniProt P49137); assay: Inhibition of recombinant MK2 (45 to 400 residues) (unknown origin) using fluorescein isothiocyanate-KKKALSRQLSVAA as substrate
[5] = target: T2, Bromodomain-containing protein 4; assay: Inhibition of immobilized N-LY294002 bead binding to C-terminal Flag-tagged BRD4 (unknown origin) expressed in HEK293T cell nuclear extract incubated for 1 hr by LC-MS/MS analysis; parameters: species or system HEK-293T
[6] = target: Bromodomain-containing protein 2 (Homo sapiens, UniProt P25440); assay: Inhibition of immobilized N-LY294002 bead binding to BRD2 (unknown origin) expressed in HEK293T cell nuclear extract incubated for 1 hr by LC-MS/MS analysis; parameters: species or system HEK-293T
[7] = target: Bromodomain-containing protein 3 (Homo sapiens, UniProt Q15059); assay: Inhibition of immobilized N-LY294002 bead binding to BRD3 (unknown origin) expressed in HEK293T cell nuclear extract incubated for 1 hr by LC-MS/MS analysis; parameters: species or system HEK-293T
[8] = target: T4, Phosphatidylinositol 4,5-bisphosphate 3-kinase catalytic subunit delta isoform (Homo sapiens, UniProt O00329); assay: Inhibition of immobilized N-LY294002 bead binding to PI3Kdelta (unknown origin) expressed in HEK293T cells incubated for 1 hr by LC-MS/MS analysis; type: cell-based, HEK-293T
T4 sequence (O00329 whole entry): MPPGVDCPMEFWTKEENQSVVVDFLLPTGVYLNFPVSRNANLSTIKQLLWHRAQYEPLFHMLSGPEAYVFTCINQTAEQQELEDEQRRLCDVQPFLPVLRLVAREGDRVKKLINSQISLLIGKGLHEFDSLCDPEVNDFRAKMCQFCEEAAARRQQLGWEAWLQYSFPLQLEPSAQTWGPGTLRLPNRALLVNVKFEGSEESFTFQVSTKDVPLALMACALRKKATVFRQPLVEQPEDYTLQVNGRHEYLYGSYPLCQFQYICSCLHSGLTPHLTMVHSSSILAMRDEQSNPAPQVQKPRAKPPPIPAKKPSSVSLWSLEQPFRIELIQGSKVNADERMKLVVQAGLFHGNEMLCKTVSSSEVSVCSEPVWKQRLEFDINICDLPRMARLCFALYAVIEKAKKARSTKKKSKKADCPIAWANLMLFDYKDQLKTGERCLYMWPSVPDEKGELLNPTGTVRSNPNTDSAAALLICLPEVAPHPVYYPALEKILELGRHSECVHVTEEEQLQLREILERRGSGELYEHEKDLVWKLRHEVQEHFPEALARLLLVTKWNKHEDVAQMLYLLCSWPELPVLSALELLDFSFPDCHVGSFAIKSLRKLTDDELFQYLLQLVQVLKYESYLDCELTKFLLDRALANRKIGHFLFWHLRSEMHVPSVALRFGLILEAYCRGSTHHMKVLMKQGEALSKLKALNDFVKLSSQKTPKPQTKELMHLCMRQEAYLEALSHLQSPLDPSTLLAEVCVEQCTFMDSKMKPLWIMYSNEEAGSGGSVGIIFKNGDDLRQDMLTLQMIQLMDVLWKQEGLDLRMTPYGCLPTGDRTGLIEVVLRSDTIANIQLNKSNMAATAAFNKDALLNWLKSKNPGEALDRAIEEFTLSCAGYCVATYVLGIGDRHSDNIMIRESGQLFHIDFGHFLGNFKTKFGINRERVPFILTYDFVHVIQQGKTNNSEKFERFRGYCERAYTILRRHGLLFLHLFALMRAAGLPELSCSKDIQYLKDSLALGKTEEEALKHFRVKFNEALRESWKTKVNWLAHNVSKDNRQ

[9] = target: T5, Receptor-interacting serine/threonine-protein kinase 1 (Homo sapiens, UniProt Q13546); assay: Inhibition of recombinant human GST-fused RIPK1 (1 to 497 residues) expressed in baculovirus infected insect Sf9 cells in presence of 32P-gamma-ATP after 30 mins by autoradiogram-based Western blot method
T5 sequence (Q13546 whole entry): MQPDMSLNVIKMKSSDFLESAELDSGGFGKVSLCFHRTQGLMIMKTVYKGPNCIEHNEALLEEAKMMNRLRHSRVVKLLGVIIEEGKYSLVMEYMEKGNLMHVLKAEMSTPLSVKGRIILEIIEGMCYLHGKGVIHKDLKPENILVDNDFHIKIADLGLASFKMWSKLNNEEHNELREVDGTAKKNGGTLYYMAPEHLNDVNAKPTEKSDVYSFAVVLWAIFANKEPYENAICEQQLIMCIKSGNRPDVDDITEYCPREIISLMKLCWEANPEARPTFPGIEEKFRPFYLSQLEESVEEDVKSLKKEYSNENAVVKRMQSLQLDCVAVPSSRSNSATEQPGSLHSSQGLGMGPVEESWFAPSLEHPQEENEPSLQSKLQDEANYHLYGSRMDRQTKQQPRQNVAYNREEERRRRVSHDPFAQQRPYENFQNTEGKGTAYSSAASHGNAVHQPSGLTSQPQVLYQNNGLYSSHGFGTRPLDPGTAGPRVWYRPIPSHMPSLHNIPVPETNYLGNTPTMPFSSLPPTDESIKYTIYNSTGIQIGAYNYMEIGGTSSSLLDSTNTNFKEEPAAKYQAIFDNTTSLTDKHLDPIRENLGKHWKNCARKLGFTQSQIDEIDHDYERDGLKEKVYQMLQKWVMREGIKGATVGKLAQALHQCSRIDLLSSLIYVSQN

[10] = target: Indoleamine 2,3-dioxygenase 1 (Homo sapiens, UniProt P14902); assay: Inhibition of recombinant human IDO using L-tryptophan as substrate after 60 mins
[11] = Inhibition of tubulin (unknown origin) polymerization by spectrophotometric method; parameters: species or system Homo sapiens
[12] = target: Oxidized purine nucleoside triphosphate hydrolase (Homo sapiens, UniProt P36639)
Description: Inhibition of DsRed-fused MTH1 (unknown origin) expressed in HEK293T cells using 8-oxo-dGTP as substrate

[13] = target: Mitogen-activated protein kinase 14 (Mus musculus, UniProt P47811); assay: Inhibition of mouse N-terminal 5His-tagged p38alpha assessed as decrease in 6His-tagged MK2a (51 to 400 residues) phosphorylation in presence of [gamma-33P]-ATP by scintillation counting method
[14] = Inhibition of tubulin polymerization in human U87 cells assessed as decrease in cell viability after 72 hrs by Alamar blue assay; type: cell-based, U-87MG ATCC; conditions: U-87 MG
[15] = target: T2, Bromodomain-containing protein 4; remark: listed apart in the source
[16] = target: Bromodomain testis-specific protein (Homo sapiens) (UniProt Q58F21)
[17] = Inhibition of porcine brain tubulin polymerization measured every min during incubation by fluorescence assay; parameters: species or system Sus scrofa
[18] = target: Casein kinase I isoform epsilon (Homo sapiens, UniProt P49674); assay: Inhibition of human CK1epsilon using casein as substrate in presence of [gamma-32P]-ATP
[19] = target: Casein kinase I isoform delta (Homo sapiens, UniProt P48730); assay: Inhibition of human CK1delta using casein as substrate in presence of [gamma-32P]-ATP
[20] = Inhibition of porcine brain tubulin polymerization measured every min for 1 hr by fluorescence assay; parameters: species or system Sus scrofa
[21] = target: T6, Ferrochelatase, mitochondrial (Homo sapiens, UniProt P22830); assay: Stabilization of FECH in human K562 cells after 1 hr by thermal shift assay; type: cell-based
T6 sequence (P22830 whole entry): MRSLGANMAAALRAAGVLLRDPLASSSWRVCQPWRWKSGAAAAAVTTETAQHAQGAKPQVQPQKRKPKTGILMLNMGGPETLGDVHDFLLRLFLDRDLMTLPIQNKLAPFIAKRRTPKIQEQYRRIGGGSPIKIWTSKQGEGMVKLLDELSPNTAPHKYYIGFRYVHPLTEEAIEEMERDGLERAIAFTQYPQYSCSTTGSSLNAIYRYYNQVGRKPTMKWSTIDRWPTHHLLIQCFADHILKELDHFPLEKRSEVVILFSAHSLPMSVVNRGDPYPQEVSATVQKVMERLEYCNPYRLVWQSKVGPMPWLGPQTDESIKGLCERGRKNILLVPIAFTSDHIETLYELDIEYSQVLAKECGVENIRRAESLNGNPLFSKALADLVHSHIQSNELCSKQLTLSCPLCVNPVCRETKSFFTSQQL

Bromodomain-containing protein 3, sequence (Q15059 whole entry, canonical isoform): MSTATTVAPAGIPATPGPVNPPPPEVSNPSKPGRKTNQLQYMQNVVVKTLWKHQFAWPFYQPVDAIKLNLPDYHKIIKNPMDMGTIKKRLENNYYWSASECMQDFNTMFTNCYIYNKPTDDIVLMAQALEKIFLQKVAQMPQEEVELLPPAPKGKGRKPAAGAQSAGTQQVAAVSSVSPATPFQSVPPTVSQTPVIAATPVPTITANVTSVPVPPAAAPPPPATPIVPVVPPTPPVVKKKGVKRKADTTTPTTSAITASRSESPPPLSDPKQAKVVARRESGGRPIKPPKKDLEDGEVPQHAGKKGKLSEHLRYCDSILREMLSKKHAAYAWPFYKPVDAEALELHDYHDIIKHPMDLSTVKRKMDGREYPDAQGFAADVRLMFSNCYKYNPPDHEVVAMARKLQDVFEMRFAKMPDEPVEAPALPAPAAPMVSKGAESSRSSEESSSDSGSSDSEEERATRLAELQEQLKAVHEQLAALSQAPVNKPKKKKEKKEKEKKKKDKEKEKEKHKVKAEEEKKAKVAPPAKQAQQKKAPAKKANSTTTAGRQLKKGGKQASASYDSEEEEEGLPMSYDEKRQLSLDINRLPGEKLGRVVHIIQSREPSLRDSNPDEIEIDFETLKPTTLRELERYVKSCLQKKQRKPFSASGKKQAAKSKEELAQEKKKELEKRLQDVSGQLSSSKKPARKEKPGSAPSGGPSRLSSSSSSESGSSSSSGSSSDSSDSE
Bromodomain-containing protein 2, sequence (P25440 whole entry): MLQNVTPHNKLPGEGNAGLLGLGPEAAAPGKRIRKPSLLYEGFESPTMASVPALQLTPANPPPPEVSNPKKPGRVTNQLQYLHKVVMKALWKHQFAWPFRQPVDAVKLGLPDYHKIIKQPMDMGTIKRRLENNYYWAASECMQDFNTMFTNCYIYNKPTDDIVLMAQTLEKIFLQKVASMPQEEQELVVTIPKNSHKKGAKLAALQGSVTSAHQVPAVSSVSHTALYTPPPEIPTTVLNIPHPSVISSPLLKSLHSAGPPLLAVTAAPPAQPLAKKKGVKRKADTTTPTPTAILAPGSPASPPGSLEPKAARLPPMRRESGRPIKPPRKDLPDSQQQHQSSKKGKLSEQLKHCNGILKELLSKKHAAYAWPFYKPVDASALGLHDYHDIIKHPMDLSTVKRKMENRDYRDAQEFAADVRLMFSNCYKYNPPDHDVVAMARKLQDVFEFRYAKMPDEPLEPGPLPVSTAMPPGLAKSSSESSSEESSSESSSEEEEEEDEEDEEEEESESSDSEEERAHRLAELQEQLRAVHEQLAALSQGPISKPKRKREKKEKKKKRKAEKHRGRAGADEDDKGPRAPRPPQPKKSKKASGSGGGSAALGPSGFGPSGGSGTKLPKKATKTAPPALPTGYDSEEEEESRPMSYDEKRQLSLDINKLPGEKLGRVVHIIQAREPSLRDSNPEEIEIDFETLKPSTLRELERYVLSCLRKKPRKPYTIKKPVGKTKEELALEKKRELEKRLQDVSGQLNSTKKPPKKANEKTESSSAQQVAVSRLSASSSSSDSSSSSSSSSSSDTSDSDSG
Mitogen-activated protein kinase 14, sequence (P47811 whole entry, the tested form may be a part): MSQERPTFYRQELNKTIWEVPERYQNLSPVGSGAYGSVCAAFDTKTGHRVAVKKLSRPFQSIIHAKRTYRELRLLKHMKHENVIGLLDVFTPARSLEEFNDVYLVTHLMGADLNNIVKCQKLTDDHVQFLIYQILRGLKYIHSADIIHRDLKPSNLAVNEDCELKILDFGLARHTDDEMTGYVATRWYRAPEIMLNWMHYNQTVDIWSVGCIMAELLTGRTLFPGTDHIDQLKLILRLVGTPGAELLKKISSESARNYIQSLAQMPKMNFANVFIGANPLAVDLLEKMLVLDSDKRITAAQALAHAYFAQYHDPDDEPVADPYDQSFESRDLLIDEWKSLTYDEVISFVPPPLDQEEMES
Indoleamine 2,3-dioxygenase 1, sequence (P14902 whole entry): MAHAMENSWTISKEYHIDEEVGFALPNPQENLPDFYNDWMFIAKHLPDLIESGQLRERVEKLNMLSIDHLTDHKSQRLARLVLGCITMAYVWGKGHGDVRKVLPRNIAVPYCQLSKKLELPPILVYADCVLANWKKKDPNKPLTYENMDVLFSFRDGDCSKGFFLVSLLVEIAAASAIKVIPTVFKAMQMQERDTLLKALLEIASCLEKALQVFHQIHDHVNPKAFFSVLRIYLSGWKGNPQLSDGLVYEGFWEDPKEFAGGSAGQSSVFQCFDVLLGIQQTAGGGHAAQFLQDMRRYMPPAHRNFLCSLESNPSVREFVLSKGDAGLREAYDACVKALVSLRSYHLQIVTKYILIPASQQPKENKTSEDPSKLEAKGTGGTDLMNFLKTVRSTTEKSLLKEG
Casein kinase I isoform delta, sequence (P48730 whole entry, canonical isoform): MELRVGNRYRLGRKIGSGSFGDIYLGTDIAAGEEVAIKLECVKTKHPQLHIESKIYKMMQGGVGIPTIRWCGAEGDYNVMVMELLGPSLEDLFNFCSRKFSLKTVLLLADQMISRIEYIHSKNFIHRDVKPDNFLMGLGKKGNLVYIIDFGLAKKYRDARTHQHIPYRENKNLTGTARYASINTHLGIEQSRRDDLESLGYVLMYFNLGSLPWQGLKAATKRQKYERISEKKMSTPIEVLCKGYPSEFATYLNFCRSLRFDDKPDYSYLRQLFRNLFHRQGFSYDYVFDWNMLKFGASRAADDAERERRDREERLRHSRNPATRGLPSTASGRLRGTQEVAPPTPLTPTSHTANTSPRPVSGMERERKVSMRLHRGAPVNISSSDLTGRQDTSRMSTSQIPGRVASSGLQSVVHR
MAP kinase-activated protein kinase 2, sequence (P49137 whole entry, the tested form may be a part): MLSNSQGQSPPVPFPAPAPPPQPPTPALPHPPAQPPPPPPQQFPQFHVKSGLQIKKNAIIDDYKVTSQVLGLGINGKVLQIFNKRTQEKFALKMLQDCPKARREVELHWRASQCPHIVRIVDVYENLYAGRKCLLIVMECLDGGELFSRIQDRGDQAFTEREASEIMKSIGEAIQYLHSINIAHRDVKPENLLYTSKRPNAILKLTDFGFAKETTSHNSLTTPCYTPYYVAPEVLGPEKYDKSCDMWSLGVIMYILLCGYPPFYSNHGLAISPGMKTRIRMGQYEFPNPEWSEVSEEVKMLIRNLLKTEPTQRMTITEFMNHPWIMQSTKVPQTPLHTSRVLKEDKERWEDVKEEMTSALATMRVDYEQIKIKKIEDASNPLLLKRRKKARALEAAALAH
Casein kinase I isoform epsilon, sequence (P49674 whole entry, canonical isoform): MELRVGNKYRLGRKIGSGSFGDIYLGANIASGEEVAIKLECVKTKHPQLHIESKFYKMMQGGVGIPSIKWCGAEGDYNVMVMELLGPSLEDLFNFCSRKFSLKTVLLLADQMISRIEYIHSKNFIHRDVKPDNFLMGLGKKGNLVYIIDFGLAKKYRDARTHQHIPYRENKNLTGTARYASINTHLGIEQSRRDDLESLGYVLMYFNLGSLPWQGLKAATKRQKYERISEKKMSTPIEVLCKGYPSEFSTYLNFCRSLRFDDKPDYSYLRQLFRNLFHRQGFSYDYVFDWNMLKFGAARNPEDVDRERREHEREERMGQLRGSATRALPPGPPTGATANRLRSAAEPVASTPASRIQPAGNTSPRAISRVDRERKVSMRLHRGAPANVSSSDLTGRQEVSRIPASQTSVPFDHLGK

## Cc1cnc(Nc2ccc(N3CCN(C)CC3)cc2)nc1Nc1cccc(S(=O)(=O)NC(C)(C)C)c1
[1]
  IC50: 25 nM

## Oc1ccc(-c2nc(-c3ccc(F)cc3)c(-c3ccncc3)[nH]2)cc1 [SB-202190]
[2]
  Kd: 3400 nM

## Cc1cn(-c2cc(NC(=O)c3ccc(C)c(Nc4nccc(-c5cccnc5)n4)c3)cc(C(F)(F)F)c2)cn1 [NILOTINIB]
[3]
  IC50: 1800 nM

## Cc1ccc(-c2ccc3c(ccc4sc5c(c43)NC[C@@H](C)NC5=O)n2)cn1
[4]
  Ki: 5 nM

## O=c1cc(N2CCOCC2)oc2c(-c3ccccc3)cccc12 [LY-294002]
[5]
  IC50: 12400 nM
[6]
  IC50: 10300 nM
[7]
  IC50: 13700 nM
[8]
  IC50: 1530 nM

## CN1C(=O)C(Cc2c[nH]c3ccccc23)NC1=S (configuration not stated) [NECROSTATIN]
[9]
  IC50: 182 nM
[10]
  IC50: 115000 nM

## O=C(c1ccccc1-c1ccccc1)N1CCc2c([nH]c3ccccc23)C1
[11]
  EC50: < 1000 nM

## CC1(C)CC2CC(C)(CN2c2ncnc3[nH]cnc23)C1 (configuration not stated)
[12]
  IC50: 100 to 220 nM

## O=C(CCCc1ccc(-c2ccccc2F)cc1)Nc1ccc(O)cc1
[13]
  IC50: 330 nM
[14]
  EC50: < 1000 nM

## C[S+]([O-])c1ccc(-c2nc(-c3ccc(F)cc3)c(-c3ccncc3)[nH]2)cc1 (configuration not stated)
[15]
  ΔTm: 1.3 °C
[16]
  ΔTm: 0.85 °C

## O=c1cc(N2CCNCC2)oc2c(-c3ccccc3)cccc12
[5]
  IC50: 9050 nM
[6]
  IC50: 7400 nM
[7]
  IC50: 11500 nM

## CC[C@@H]1C(=O)N(C)c2cnc(Nc3ccc(C(=O)N[C@H]4CC[C@H](N5CCN(CC6CC6)CC5)CC4)cc3OC)nc2N1C(C)C [VOLASERTIB]
[2]
  Kd: 79 nM

## O=C1NC(=O)[C@@H](c2cn3c4c(cccc24)CCC3)[C@@H]1c1c[nH]c2ccccc12 [TIVANTINIB]
[17]
  EC50: < 1000 nM

## COc1cc(OC)c(/C=C2/C(=O)Nc3ccccc32)c(OC)c1
[18]
  IC50: 1000 to 25000 nM
[19]
  IC50: 1000 to 25000 nM
[20]
  EC50: < 1000 nM

## Nc1nc(NCCc2ccccc2)c2nc[nH]c2n1
[12]
  IC50: 100 to 220 nM

## CCCS(=O)(=O)Nc1ccc(F)c(C(=O)c2c[nH]c3ncc(-c4ccc(Cl)cc4)cc23)c1F [VEMURAFENIB]
[21]
  EC50: 5010 nM

## CN(c1ccccc1CNc1nc(Nc2ccc3c(c2)CC(=O)N3)ncc1C(F)(F)F)S(C)(=O)=O
[2]
  Kd: 445 nM
